EP0259014A2, “5-Deoxy-5-fluorokanamycin B derivatives and processes for the production thereof” (ZAIDAN HOJIN BISEIBUTSU KAGAKU KENKYU KAI, priority 1986, dated 1988)
In brackets after ≈: the same amount, converted by molar mass. Where two headings read alike, the source gives them in different places.

What was measured:
Escherichia coli K-12 R5 = test: MIC, serial dilution on Mueller Hinton agar; format: cell-based; conditions: K12R5, 18 h
[1] = test system: Staphylococcus aureus Ap01; test: MIC, serial dilution on Mueller Hinton agar; format: cell-based
[2] = test system: Staphylococcus aureus 209P; test: MIC, serial dilution on Mueller Hinton agar; format: cell-based; conditions: Staphylococcus aureus 209P; Mueller Hinton agar, 37°C, 18 hours; read-out: MIC.
Proteus rettgeri GN 311 = test: MIC, serial dilution on Mueller Hinton agar; format: cell-based; conditions: Providencia rettgeri, GN311; Proteus rettgeri GN 311; Mueller Hinton agar, 37°C, 18 hours; read-out: MIC.
[3] = test system: Escherichia coli K-12 LA 290 R55; test: MIC, serial dilution on Mueller Hinton agar; format: cell-based; conditions: Escherichia coli, K12LA290R55, 18 h
Providencia sp. Pv 16 = test: MIC, serial dilution on Mueller Hinton agar; format: cell-based
Escherichia coli K-12 = test: MIC, serial dilution on Mueller Hinton agar; format: cell-based; conditions: K12; Escherichia coli K-12; Mueller Hinton agar, 37°C, 18 hours; read-out: MIC.
[4] = test system: Pseudomonas aeruginosa A3; test: MIC, serial dilution on Mueller Hinton agar; format: cell-based; conditions: Pseudomonas aeruginosa A3; Mueller Hinton agar, 37°C, 18 hours; read-out: MIC.
[5] = test system: Corynebacterium bovis 1810; test: MIC, serial dilution on Mueller Hinton agar; format: cell-based; conditions: Corynebacterium bovis 1810; Mueller Hinton agar, 37°C, 18 hours; read-out: MIC.
[6] = test system: Pseudomonas aeruginosa GN 315; test: MIC, serial dilution on Mueller Hinton agar; format: cell-based
in vivo = conditions: mouse, iv
Serratia marcescens = test: MIC, serial dilution on Mueller Hinton agar; format: cell-based
[7] = test system: Klebsiella pneumoniae 22#3038; test: MIC, serial dilution on Mueller Hinton agar; format: cell-based; conditions: Klebsiella pneumoniae 22#3038, resistance mechanism APH(3')-II, ANT(2"), 37°C, 18 hours
Text: The antibacterial spectra so determined of the new compounds No. 1 to No. 13 (each in the form of the free base) of this invention are as shown in Table 1 below.

[8] = test system: Escherichia coli JR66/W677; test: microbe, parasite or virus in culture; format: cell-based; conditions: JR66/W677, 18 h
Bacillus subtilis PCI219 = test: MIC, serial dilution on Mueller Hinton agar; format: cell-based; conditions: Bacillus subtilis PCI219; Mueller Hinton agar, 37°C, 18 hours; read-out: MIC.
Mycobacterium 607 = test: MIC, serial dilution on Mueller Hinton agar; format: cell-based; conditions: Mycobacterium 607; Mueller Hinton agar, 37°C, incubated for 40 hours; read-out: MIC.
[9] = test system: Escherichia coli K-12 ML 1629; test: MIC, serial dilution on Mueller Hinton agar; format: cell-based; conditions: K12ML1629, Escherichia coli K-12 ML 1629, resistance mechanism APH(3')-I, 37°C, 18 hours
Escherichia coli JR225 = test: microbe, parasite or virus in culture; format: cell-based; conditions: Escherichia coli, JR225, 18 h
[10] = Staphylococcus aureus Ap01, resistance mechanism ANT(4'), Mueller Hinton agar, 37°C, 18 hours, read-out: MIC.
[11] = GN315, Pseudomonas aeruginosa GN 315, resistance mechanism AAC(6'), Mueller Hinton agar, 37°C, 18 hours, read-out: MIC.
[12] = SP.PV16, Providencia sp. Pv 16, resistance mechanism AAC(2'), Mueller Hinton agar, 37°C, 18 hours, read-out: MIC.
[13] = Pseudomonas aeruginosa, GN315, 18 h

| SMILES | MIC (Escherichia coli K-12 R5) | MIC [1, 10] | MIC [2] | MIC (Proteus rettgeri GN 311) | MIC [3] | MIC (Providencia sp. Pv 16; Providencia, SP.PV16, 18 h) | MIC (Escherichia coli K-12) | MIC [4] | MIC [5] | MIC [6, 11] | LD50 (in vivo) | MIC [7] | MIC [8] | MIC (Bacillus subtilis PCI219) | MIC (Providencia sp. Pv 16; [12]) | MIC (Mycobacterium 607) | MIC [9] | MIC (Escherichia coli JR225) | MIC [6, 13] | MIC (Serratia marcescens; 18 h) | also measured |
| --- | --- | --- | --- | --- | --- | --- | --- | --- | --- | --- | --- | --- | --- | --- | --- | --- | --- | --- | --- | --- | --- |
| NC[C@H]1O[C@H](O[C@H]2[C@H](F)[C@@H](O[C@H]3O[C@H](CO)[C@@H](O)[C@H](N)[C@H]3O)[C@H](N)C[C@@H]2N)[C@H](N)C[C@@H]1O [Compound No. 2, 5,3'-Dideoxy-5-fluorokanamycin B] | 25 µg/mL (≈ 53.2 µM) | 0.39 µg/mL (≈ 0.831 µM) | 0.39 µg/mL (≈ 0.831 µM) | < 0.2 µg/mL | 3.12 µg/mL (≈ 6.65 µM) | 3.12 µg/mL (≈ 6.65 µM) | < 0.2 µg/mL | < 0.2 µg/mL | 1.56 µg/mL (≈ 3.32 µM) | 50 µg/mL (≈ 106 µM) | 200 mg/kg | 3.12 µg/mL (≈ 6.65 µM) | – | – | – | – | – | – | – | – | MIC (Serratia marcescens; Mueller Hinton agar, 37°C, 18 hours, read-out: MIC.): 6.25 µg/mL (≈ 13.3 µM) |
| NCC(O)C(=O)N[C@@H]1C[C@H](N)[C@@H](O[C@H]2O[C@H](CN)[C@@H](O)C[C@H]2N)[C@H](F)[C@H]1O[C@H]1O[C@H](CO)[C@@H](O)[C@H](N)[C@H]1O (stereo partly drawn) [Compound No. 7, 1-N-(3-Amino-2-(RS)-hydroxypropionyl)-5,3'-dideoxy-5-fluorokanamycin B] | 6.25 µg/mL (≈ 11.2 µM) | – | 0.39 µg/mL (≈ 0.701 µM) | 0.78 µg/mL (≈ 1.4 µM) | 0.78 µg/mL (≈ 1.4 µM) | – | 0.2 µg/mL (≈ 0.359 µM) | 0.39 µg/mL (≈ 0.701 µM) | < 0.2 µg/mL | – | – | 3.12 µg/mL (≈ 5.61 µM) | 1.56 µg/mL (≈ 2.8 µM) | 0.2 µg/mL (≈ 0.359 µM) | 0.78 µg/mL (≈ 1.4 µM) | 0.78 µg/mL (≈ 1.4 µM) | 0.78 µg/mL (≈ 1.4 µM) | 0.78 µg/mL (≈ 1.4 µM) | 6.25 µg/mL (≈ 11.2 µM) | 3.12 µg/mL (≈ 5.61 µM) | MIC ([1]; Staphylococcus aureus, AP01, 18 h): 1.56 µg/mL (≈ 2.8 µM) |
| NC[C@H](O)C(=O)N[C@@H]1C[C@H](N)[C@@H](O[C@H]2O[C@H](CN)[C@@H](O)C[C@H]2N)[C@H](F)[C@H]1O[C@H]1O[C@H](CO)[C@@H](O)[C@H](N)[C@H]1O [Compound No. 8, 1-N-(3-Amino-2-(S)-hydroxypropionyl)-5,3'-dideoxy-5-fluorokanamycin B] | 6.25 µg/mL (≈ 11.2 µM) | 0.78 µg/mL (≈ 1.4 µM) | 0.39 µg/mL (≈ 0.701 µM) | 0.39 µg/mL (≈ 0.701 µM) | 1.56 µg/mL (≈ 2.8 µM) | – | 0.2 µg/mL (≈ 0.359 µM) | 0.39 µg/mL (≈ 0.701 µM) | < 0.2 µg/mL | – | – | 1.56 µg/mL (≈ 2.8 µM) | 0.78 µg/mL (≈ 1.4 µM) | 0.2 µg/mL (≈ 0.359 µM) | 0.78 µg/mL (≈ 1.4 µM) | 0.78 µg/mL (≈ 1.4 µM) | 0.78 µg/mL (≈ 1.4 µM) | 0.78 µg/mL (≈ 1.4 µM) | 6.25 µg/mL (≈ 11.2 µM) | 3.12 µg/mL (≈ 5.61 µM) | – |
| NCC[C@H](O)C(=O)N[C@@H]1C[C@H](N)[C@@H](O[C@H]2O[C@H](CN)C[C@H](O)[C@H]2N)[C@H](F)[C@H]1O[C@H]1O[C@H](CO)[C@@H](O)[C@H](N)[C@H]1O [Compound No. 10, 1-N-(4-Amino-2-(S)-hydroxybutyryl)-5,4'-dideoxy-5-fluorokanamycin B] | 12.5 µg/mL (≈ 21.9 µM) | 0.39 µg/mL (≈ 0.683 µM) | 0.39 µg/mL (≈ 0.683 µM) | 0.2 µg/mL (≈ 0.35 µM) | 1.56 µg/mL (≈ 2.73 µM) | – | 0.2 µg/mL (≈ 0.35 µM) | 0.39 µg/mL (≈ 0.683 µM) | < 0.2 µg/mL | 6.25 µg/mL (≈ 11 µM) | – | 3.12 µg/mL (≈ 5.47 µM) | 1.56 µg/mL (≈ 2.73 µM) | 0.39 µg/mL (≈ 0.683 µM) | 0.78 µg/mL (≈ 1.37 µM) | 6.25 µg/mL (≈ 11 µM) | 0.78 µg/mL (≈ 1.37 µM) | 0.78 µg/mL (≈ 1.37 µM) | – | 3.12 µg/mL (≈ 5.47 µM) | – |
| NC[C@@H]1CC[C@@H](N)[C@@H](O[C@H]2[C@H](F)[C@@H](O[C@H]3O[C@H](CO)[C@@H](O)[C@H](N)[C@H]3O)[C@H](NC(=O)[C@@H](O)CN)C[C@@H]2N)O1 [Compound No. 12, 1-N-(3-Amino-2-(S)-hydroxypropionyl)-5,3',4'-trideoxy-5-fluorokanamycin B] | 50 µg/mL (≈ 92.5 µM) | 0.78 µg/mL (≈ 1.44 µM) | 0.39 µg/mL (≈ 0.721 µM) | < 0.2 µg/mL | 1.56 µg/mL (≈ 2.89 µM) | 1.56 µg/mL (≈ 2.89 µM) | 0.2 µg/mL (≈ 0.37 µM) | 0.39 µg/mL (≈ 0.721 µM) | 0.2 µg/mL (≈ 0.37 µM) | 6.25 µg/mL (≈ 11.6 µM) | – | 1.56 µg/mL (≈ 2.89 µM) | 1.56 µg/mL (≈ 2.89 µM) | 0.39 µg/mL (≈ 0.721 µM) | – | 0.78 µg/mL (≈ 1.44 µM) | 0.78 µg/mL (≈ 1.44 µM) | 0.39 µg/mL (≈ 0.721 µM) | – | 1.56 µg/mL (≈ 2.89 µM) | – |
| NCC[C@H](O)C(=O)N[C@@H]1C[C@H](N)[C@@H](O[C@H]2O[C@H](CN)CC[C@H]2N)[C@H](O)[C@H]1O[C@H]1O[C@H](CO)[C@@H](O)[C@H](N)[C@H]1O [habekacin, 1-N-(4-amino-2-(S)-hydroxybutyryl)-3',4'-dideoxykanamycin B, reference compound] | – | – | – | – | – | – | – | – | – | – | 90 mg/kg | – | – | – | – | – | – | – | – | – | – |
